What all share (assay): relative viability (nuclei count vs DMSO), 5 days (fraction); higher = more cells survive
Compound in assay [1]: C1CNCCC1C2=CC(=NN2)C3=CC=NC=C3
In short, it runs like this:
(§1)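 Viability was defined as treated-well nuclei divided by vehicle-well nuclei, with the median taken over replicate plates. Cells from lung cancer lines sat overnight at 37 °C in 1536-well plates, received five √10-spaced library-drug doses by pinning on vehicle-anchored plates, and grew 5 days without medium change before one-step fixation, permeabilisation and Hoechst staining, 4× imaging and MetaXpress nuclear counts. Only plates with control CV under 25% and at least one doubling were kept.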

Compound in assay [2]: C[C@@H](N)c1ccc(C(=O)Nc2ccnc3[nH]ccc23)cc1
The essentials: as §1

Compound in assay [3]: O[C@H]1CC[C@H](Nc2ncc3nc(Nc4c(F)cc(F)cc4F)n([C@H]4CCOC4)c3n2)CC1 [Tanzisertib]
In short, it runs like this: as §1

Regarding 201T, the relative viability in assay [1] (0.08 µM) came out at 0.97; in assay [1] (0.8 µM) it was 0.993; in assay [1] (2.53 µM) it was 0.983; in assay [1] (8 µM), 0.938; in assay [2] (0.04 µM), 1.01; in assay [2] (0.1265 µM), 0.971. Also, the relative viability amounted to 1.01 in assay [2] (0.4 µM); 0.976 in assay [2] (1.265 µM); 1.12 in assay [2] (4 µM); 1 in assay [3] (0.08 µM); 0.969 in assay [3] (0.253 µM); 0.997 in assay [3] (0.8 µM). The relative viability in assay [3] (2.53 µM) worked out at 0.933; in assay [3] (8 µM), 0.898.

Consider A549, for which the relative viability in assay [1] (0.08 µM) is 0.872; in assay [1] (0.8 µM), 1.03; in assay [1] (2.53 µM), 1.07; in assay [1] (8 µM), 1.05; in assay [2] (0.04 µM), 1.02; in assay [2] (0.1265 µM), 1.03. Moreover, the relative viability is 1.19 in assay [2] (0.4 µM); 0.944 in assay [2] (1.265 µM); 0.829 in assay [2] (4 µM); 1 in assay [3] (0.08 µM); 0.99 in assay [3] (0.253 µM); 0.976 in assay [3] (0.8 µM). The relative viability in assay [3] (2.53 µM) was determined as 1; in assay [3] (8 µM) it was 0.856.

A-427: the relative viability stood at 0.953 in assay [1] (0.08 µM); 1.05 in assay [1] (0.8 µM); 0.984 in assay [1] (2.53 µM); 1.05 in assay [1] (8 µM); 0.862 in assay [2] (0.04 µM); 1.07 in assay [2] (0.1265 µM). The relative viability came out at 0.975 in assay [2] (0.4 µM); 0.906 in assay [2] (4 µM); 0.997 in assay [3] (0.08 µM); 0.998 in assay [3] (0.253 µM); 1.07 in assay [3] (0.8 µM); 1.08 in assay [3] (2.53 µM). The relative viability in assay [3] (8 µM) was 0.789.

For the cell line ABC-1, the relative viability was 0.975 in assay [1] (0.08 µM); 0.817 in assay [1] (0.8 µM); 1.07 in assay [1] (2.53 µM); 1.02 in assay [1] (8 µM); 0.767 in assay [2] (0.04 µM); 1.07 in assay [2] (0.1265 µM). The relative viability was found to be 0.918 in assay [2] (0.4 µM); 0.579 in assay [2] (1.265 µM); 0.901 in assay [2] (4 µM); 1.03 in assay [3] (0.08 µM); 0.995 in assay [3] (0.253 µM); 0.882 in assay [3] (0.8 µM). For the same cell line, the relative viability in assay [3] (2.53 µM) was found to be 1; in assay [3] (8 µM), 0.957.

Regarding BEN, the relative viability in assay [1] (0.08 µM) was found to be 0.825; in assay [1] (0.8 µM) it was 0.888; in assay [1] (2.53 µM), 0.984; in assay [1] (8 µM) it was 1.04; in assay [2] (0.04 µM), 0.927; in assay [2] (0.1265 µM), 0.954. The relative viability in assay [2] (0.4 µM) is 1.04; in assay [2] (1.265 µM) it was 1.01; in assay [2] (4 µM), 0.718; in assay [3] (0.08 µM), 0.977; in assay [3] (0.253 µM) it was 1.01; in assay [3] (0.8 µM), 0.997. The values for the relative viability in assay [3] (2.53 µM) and in assay [3] (8 µM) were 1.08 and 0.832, respectively.

As to CAL-12T, the relative viability in assay [1] (0.08 µM) stood at 1.01; in assay [1] (0.8 µM) it was 1.18; in assay [1] (2.53 µM), 1.08; in assay [1] (8 µM), 0.99; in assay [2] (0.04 µM), 1.11; in assay [2] (0.1265 µM) it was 1.04. Also, the relative viability in assay [2] (0.4 µM) turned out to be 1.23; in assay [2] (1.265 µM), 0.945; in assay [2] (4 µM), 0.839; in assay [3] (0.08 µM), 1.03; in assay [3] (0.253 µM), 1.09; in assay [3] (0.8 µM) it was 1.08. The relative viability in assay [3] (2.53 µM) turned out to be 1.05; in assay [3] (8 µM) it was 1.03.

With COR-L23, the relative viability in assay [1] (0.08 µM) turned out to be 1.02; in assay [1] (0.8 µM), 1.19; in assay [1] (2.53 µM) it was 0.991; in assay [1] (8 µM), 0.982; in assay [2] (0.04 µM) it was 0.913; in assay [2] (0.1265 µM), 1.17. The relative viability in assay [2] (0.4 µM) worked out at 0.941; in assay [2] (1.265 µM) it was 0.878; in assay [2] (4 µM) it was 0.646; in assay [3] (0.08 µM) it was 1.06; in assay [3] (0.253 µM), 1.04; in assay [3] (0.8 µM), 1.07. The relative viability in assay [3] (2.53 µM) came out at 1.06; in assay [3] (8 µM) it was 1.04.

Take COR-L 105: the relative viability turned out to be 0.857 in assay [1] (0.08 µM); 0.925 in assay [1] (0.8 µM); 1.02 in assay [1] (2.53 µM); 0.923 in assay [1] (8 µM); 0.91 in assay [2] (0.04 µM); 0.964 in assay [2] (0.1265 µM). The relative viability came to 1.11 in assay [2] (0.4 µM); 0.7 in assay [2] (1.265 µM); 0.735 in assay [2] (4 µM); 1.08 in assay [3] (0.08 µM); 0.899 in assay [3] (0.253 µM); 0.918 in assay [3] (0.8 µM). In addition, the values for the relative viability in assay [3] (2.53 µM) and in assay [3] (8 µM) were 1.15 and 0.706, respectively.

Calu-6: the relative viability was found to be 0.964 in assay [1] (0.08 µM); 1.02 in assay [1] (0.8 µM); 1.01 in assay [1] (2.53 µM); 0.998 in assay [1] (8 µM); 1.02 in assay [2] (0.04 µM); 1.03 in assay [2] (0.1265 µM). Besides, the relative viability was found to be 1.03 in assay [2] (0.4 µM); 0.935 in assay [2] (1.265 µM); 0.826 in assay [2] (4 µM); 1.01 in assay [3] (0.08 µM); 1.01 in assay [3] (0.253 µM); 1.01 in assay [3] (0.8 µM). In addition, the relative viability in assay [3] (2.53 µM) is 1.01; in assay [3] (8 µM), 0.931.

As to ChaGo-K-1, the relative viability in assay [1] (0.08 µM) worked out at 0.93; in assay [1] (0.8 µM), 1.05; in assay [1] (2.53 µM), 0.952; in assay [1] (8 µM), 0.91; in assay [2] (0.04 µM), 1.08; in assay [2] (0.1265 µM), 0.999. Also, the relative viability in assay [2] (0.4 µM) is 1.02; in assay [2] (1.265 µM), 0.804; in assay [2] (4 µM) it was 0.888; in assay [3] (0.08 µM), 1.05; in assay [3] (0.253 µM), 0.999; in assay [3] (0.8 µM), 0.984. Besides, the values for the relative viability in assay [3] (2.53 µM) and in assay [3] (8 µM) were 0.992 and 0.986, respectively.

Values taken from the supplement of paper PMC10307832.
